Molecular target: T1, soluble guanylate cyclase (sGC) (Bos taurus, UniProt P16068+P19687)
T1 construct: The sGC employed had been isolated from bovine lung; from tissue; host or cells: bovine lung
T1 sequence (P16068 1-619): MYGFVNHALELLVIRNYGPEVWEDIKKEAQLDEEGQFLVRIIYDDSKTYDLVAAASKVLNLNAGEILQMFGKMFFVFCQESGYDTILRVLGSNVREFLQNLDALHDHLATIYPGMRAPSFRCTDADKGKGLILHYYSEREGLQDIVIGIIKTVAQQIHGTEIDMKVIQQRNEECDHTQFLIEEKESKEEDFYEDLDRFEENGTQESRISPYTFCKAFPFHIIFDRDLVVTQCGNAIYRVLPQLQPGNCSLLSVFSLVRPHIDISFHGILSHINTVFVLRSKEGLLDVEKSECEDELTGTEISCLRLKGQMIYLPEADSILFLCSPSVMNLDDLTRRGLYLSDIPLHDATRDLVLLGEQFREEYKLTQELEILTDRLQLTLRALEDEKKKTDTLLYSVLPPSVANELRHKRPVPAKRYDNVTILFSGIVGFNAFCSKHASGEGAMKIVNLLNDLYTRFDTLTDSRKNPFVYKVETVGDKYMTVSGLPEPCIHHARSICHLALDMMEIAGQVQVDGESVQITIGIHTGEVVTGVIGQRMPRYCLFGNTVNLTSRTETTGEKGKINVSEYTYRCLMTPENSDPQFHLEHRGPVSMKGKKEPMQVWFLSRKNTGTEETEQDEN
T1 sequence (P19687 1-691): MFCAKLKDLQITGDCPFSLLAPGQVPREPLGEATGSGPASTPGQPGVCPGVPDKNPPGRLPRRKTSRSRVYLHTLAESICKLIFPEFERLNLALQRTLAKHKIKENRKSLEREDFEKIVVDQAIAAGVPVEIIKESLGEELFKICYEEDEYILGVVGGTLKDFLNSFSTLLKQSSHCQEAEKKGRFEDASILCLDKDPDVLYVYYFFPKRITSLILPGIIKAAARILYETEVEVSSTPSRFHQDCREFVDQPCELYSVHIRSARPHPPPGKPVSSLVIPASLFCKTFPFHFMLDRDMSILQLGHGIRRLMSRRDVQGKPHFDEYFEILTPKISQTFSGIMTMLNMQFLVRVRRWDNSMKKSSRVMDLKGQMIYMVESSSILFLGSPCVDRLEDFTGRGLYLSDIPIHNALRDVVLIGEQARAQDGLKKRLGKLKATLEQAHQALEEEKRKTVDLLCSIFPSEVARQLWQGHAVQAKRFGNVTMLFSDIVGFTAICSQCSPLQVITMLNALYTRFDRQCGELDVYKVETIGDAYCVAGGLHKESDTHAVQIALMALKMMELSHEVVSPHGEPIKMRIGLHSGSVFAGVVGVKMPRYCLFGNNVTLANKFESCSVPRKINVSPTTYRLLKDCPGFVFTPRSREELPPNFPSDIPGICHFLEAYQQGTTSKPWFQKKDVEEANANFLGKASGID
Assay: Activation of soluble guanylate cyclase (cGMP enzyme immunoassay)
Format: biochemical
Conditions: test substance 50 μM; sGC isolated from bovine lung; 37° C., 15 to 20 minutes; [cGMP]test substance/[cGMP]control (basal enzyme activity)
Description: Activation of Soluble Guanylate Cyclase
The activation of soluble guanylate cyclase (sGC), which catalyzes the conversion of guanosine triphosphate (GTP) to cyclic guanosine monophosphate (cGMP) and pyrophosphate, by the compounds according to the invention was quantified with the aid of an enzyme immunoassay (EIA) from Amersham. For this, the test substances were first incubated with sGC in microtiter plates and then the quantity of the resulting cGMP was determined.
The sGC employed had been isolated from bovine lung (see Methods in Enzymology, Volume 195, p. 377). The test solutions (100 μl per well) contained 50 mM triethanolamine (TEA) buffer (pH 7.5), 3 mM MgCl2, 3 mM reduced glutathione (GSH), 0.1 mM GTP, 1 mM 3-isobutyl-1-methylxanthine (IBMX), suitably diluted enzyme solution and the test substance or, in the control experiments, solvent. […] The absorption of the samples was measured at 450 nm (reference wavelength 620 nm) in a microtiter plate reading apparatus. The cGMP concentration was determined by means of a calibration curve, which was obtained under the same experimental conditions. The activation of the sGC by a test substance is given as n-fold stimulation of the basal enzyme activity which was found in the control experiments (with solvent instead of test substance), calculated according to the formula: n-fold stimulation=[cGMP]test substance/[cGMP]control.

**Q.** With `CS(=O)(=O)O.O[C@H]1CC[C@H](Nc2nc(-c3ccc(Cl)cc3)nc3c2CCCC3)CC1` [Example 26, 2-(4-Chlorophenyl)-4-(trans-4-hydroxycyclohexylamino)-5,6,7,8-tetrahydroquinazoline methanesulfonic acid salt] as the molecule, how does the “n-fold stimulation (at c = 50 μM)” value read?
**A.** 28 n-fold

Reference: patent US7045526B2, “Substituted 4-amino-2-aryl-tetrahydroquinazolines, their preparation, their use and pharmaceutical preparations comprising them” (Sanofi-Aventis Deutschland GmbH, priority 1999, dated 2006)
